Laboratory results: PubChem BioAssay AID330 (DTP/NCI, 2004)
Where “and” joins values, the source holds several entries; their conditions need not be identical. Identical values can stand only once. Toxic doses and inconclusive results are not listed. Rule for the calls: active = survival T/C of 150% or more; inactive = T/C below 125% in these data.

Test system: P388 leukemia ip, CD2F1 mice, survival T/C
Test: NCI In Vivo Anticancer Drug Screen. Data for tumor model P388 Leukemia (intraperitoneal) in CD2F1 (CDF1) mice
Conditions: endpoint: median survival time, higher = longer survival
Summary of the method: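 Mice carrying the transplanted tumor received test compound or vehicle. Survival was recorded in each group, and the value is the treated-group measurement divided by that of the vehicle-treated control group.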

[1] = dose: 50.0 mg/kg/injection, schedule: Q01DX009 (ip), vehicle: saline with Tween-80
[2] = dose: 100.0 mg/kg/injection, schedule: Q01DX009 (ip), vehicle: saline with Tween-80
[3] = dose: 200.0 mg/kg/injection, schedule: Q01DX009 (ip), vehicle: saline with Tween-80
[4] = dose: 60.0 mg/kg/injection, schedule: Q01DX005 (ip), vehicle: saline with Tween-80
[5] = dose: 120.0 mg/kg/injection, schedule: Q01DX005 (ip), vehicle: saline with Tween-80
[6] = dose: 240.0 mg/kg/injection, schedule: Q01DX005 (ip), vehicle: saline with Tween-80
[7] = dose: 50.0 mg/kg/injection, schedule: Q01DX005 (ip), vehicle: Klucel (hydroxypropylcellulose) (HPC)
[8] = dose: 200.0 mg/kg/injection, schedule: Q01DX005 (ip), vehicle: Klucel (hydroxypropylcellulose) (HPC)
[9] = dose: 100.0 mg/kg/injection, schedule: Q01DX005 (ip), vehicle: Klucel (hydroxypropylcellulose) (HPC)
[10] = dose: 50.0 mg/kg/injection, schedule: Q01DX009 (ip), vehicle: Klucel (hydroxypropylcellulose) (HPC)
[11] = dose: 100.0 mg/kg/injection, schedule: Q01DX009 (ip), vehicle: Klucel (hydroxypropylcellulose) (HPC)
[12] = dose: 200.0 mg/kg/injection, schedule: Q01DX009 (ip), vehicle: Klucel (hydroxypropylcellulose) (HPC)
[13] = dose: 50.0 mg/kg/injection, schedule: Q01DX005 (ip), vehicle: saline with Tween-80
[14] = dose: 100.0 mg/kg/injection, schedule: Q01DX005 (ip), vehicle: saline with Tween-80
[15] = dose: 200.0 mg/kg/injection, schedule: Q01DX005 (ip), vehicle: saline with Tween-80

Measured: T/C

C[N+]1=Nc2cccc3cccc(c23)[N-]1
inactive: dose: 50.0 mg/kg/injection, schedule: Q01DX001 (ip), vehicle: Klucel (hydroxypropylcellulose) (HPC) 111 % of control | dose: 100.0 mg/kg/injection, schedule: Q01DX001 (ip), vehicle: Klucel (hydroxypropylcellulose) (HPC) 102 % of control | dose: 200.0 mg/kg/injection, schedule: Q01DX001 (ip), vehicle: Klucel (hydroxypropylcellulose) (HPC) 100 % of control

Cc1cc2c(cc1C)NC(C)CC(=O)N2 (stereo not drawn)
inactive: dose: 100.0 mg/kg/injection, schedule: Q04DX003 (ip), vehicle: saline with Tween-80 109 % of control | dose: 200.0 mg/kg/injection, schedule: Q04DX003 (ip), vehicle: saline with Tween-80 95 % of control

NC(=S)c1ccc(C2Nc3ccc(Cl)cc3N2)cc1 (stereo not drawn)
inactive: dose: 12.5 mg/kg/injection, schedule: Q04DX002 (ip), vehicle: saline with Tween-80 106 % of control | dose: 25.0 mg/kg/injection, schedule: Q04DX002 (ip), vehicle: saline with Tween-80 94 % of control | dose: 50.0 mg/kg/injection, schedule: Q04DX002 (ip), vehicle: saline with Tween-80 90 % of control

CC1C=CC(C)S(=O)N1C(=O)Cc1ccccc1 (stereo not drawn)
inactive: dose: 60.0 mg/kg/injection, schedule: Q01DX005 (ip), vehicle: Klucel (hydroxypropylcellulose) (HPC) 100 % of control | dose: 120.0 mg/kg/injection, schedule: Q01DX005 (ip), vehicle: Klucel (hydroxypropylcellulose) (HPC) 106 % of control | dose: 240.0 mg/kg/injection, schedule: Q01DX005 (ip), vehicle: Klucel (hydroxypropylcellulose) (HPC) 113 % of control

CNC(=O)OCc1cc(C)cc(C)c1-c1ccco1
inactive: [1] 101 % of control | [2] 98 % of control | [3] 95 % of control

CC(O[Si](C)(C)C(C)(C)C)C(=O)Sc1ccccn1 (stereo not drawn)
inactive: [4] 102 % of control | [5] 103 % of control

CC(NC(=O)C1CCCN1C(=O)OC(C)(C)C)C(=O)OCc1ccccc1 (stereo not drawn)
inactive: dose: 50.0 mg/kg/injection, schedule: Q01DX005 (ip), vehicle: saline + Tween-80 + alcohol 98 % of control | dose: 100.0 mg/kg/injection, schedule: Q01DX005 (ip), vehicle: saline + Tween-80 + alcohol 98 % of control | dose: 200.0 mg/kg/injection, schedule: Q01DX005 (ip), vehicle: saline + Tween-80 + alcohol 99 % of control

CSC1C(=O)N2CCCc3cccc1c32 (stereo not drawn)
inactive: [4] 105 % of control | [5] 96 % of control | [6] 96 % of control

Cc1cc2nc(CN(CCN(Cc3nc4cc(C)c(C)cc4[nH]3)Cc3nc4cc(C)c(C)cc4[nH]3)Cc3nc4cc(C)c(C)cc4[nH]3)[nH]c2cc1C
inactive: dose: 12.5 mg/kg/injection, schedule: Q01DX001 (ip), vehicle: saline with Tween-80 106 % of control | dose: 25.0 mg/kg/injection, schedule: Q01DX001 (ip), vehicle: saline with Tween-80 116 % of control | dose: 50.0 mg/kg/injection, schedule: Q01DX001 (ip), vehicle: saline with Tween-80 116 % of control

CCCCCCCCCCCC1=C(O)C(=O)C(CC2=C(O)C(=O)C(CCCCCCCCCCC)=C(O)C2=O)=C(O)C1=O
inactive: dose: 25.0 mg/kg/injection, schedule: Q01DX005 (ip), vehicle: Klucel + Tween-80 97 % of control | [7] 86 % of control | dose: 50.0 mg/kg/injection, schedule: Q01DX005 (ip), vehicle: Klucel + Tween-80 91 % of control | dose: 100.0 mg/kg/injection, schedule: Q01DX005 (ip), vehicle: Klucel + Tween-80 91 % of control | [8] 89 % of control

COc1ccc2c(c1)C(O)C(CO)C(C(=O)O)C2 (stereo not drawn)
inactive: [7] 106 % of control | [9] 101 % of control | [8] 101 % of control

CCOC(=O)C(=CNc1cc(C(F)(F)F)ccc1N1CCOCC1)C(=O)OCC
inactive: [10] 97 % of control | [11] 100 % of control | [12] 100 % of control

CNC(=O)c1cc2ccccc2o/c1=N/NC(N)=O
inactive: dose: 100.0 mg/kg/injection, schedule: Q01DX001 (ip), vehicle: saline 103 % of control | dose: 200.0 mg/kg/injection, schedule: Q01DX001 (ip), vehicle: saline 103 % of control | dose: 400.0 mg/kg/injection, schedule: Q01DX001 (ip), vehicle: saline 96 % of control

O=C1Cc2ccccc2NC(c2ccccc2)C1S(=O)(=O)c1ccccc1 (stereo not drawn)
inactive: [7] 102 % of control | [9] 102 % of control | [8] 101 % of control

O=C(Cc1nc2cc(Cl)c(Cl)cc2nc1CC(=O)c1cccnc1)c1cccnc1
inactive: [4] 110 % of control | [5] 103 % of control | [6] 100 % of control

Cc1c(C#N)c2nc(N)c3ccccc3n2c1C
inactive: [7] 101 % of control | [9] 106 % of control | [8] 106 % of control

Cc1[nH]nc2oc(=O)c3ccccc3c12
inactive: [7] 105 % of control | [9] 102 % of control | [8] 102 % of control

COC1=C(C)[C@@H]2CC(=O)O[C@@H]3C[C@H]4CCCC[C@]4(C)[C@@H](C1=O)[C@@]32C
inactive: [7] 95 % of control | [9] 92 % of control | [8] 93 % of control

COC1CCC(NS(=O)(=O)c2ccc(N)cc2)[N-]N1.[Ag+] (stereo not drawn)
inactive: dose: 12.5 mg/kg/injection, schedule: Q01DX009 (ip), vehicle: saline 93 % of control | dose: 25.0 mg/kg/injection, schedule: Q01DX009 (ip), vehicle: saline 101 % of control | dose: 50.0 mg/kg/injection, schedule: Q01DX009 (ip), vehicle: saline 98 % of control and 109 % of control

CCCCCCCCCCCCCCC(C(=O)[O-])[n+]1ccccc1 (stereo not drawn)
inactive: dose: 15.0 mg/kg/injection, schedule: Q01DX005 (ip), vehicle: saline 114 % of control | dose: 30.0 mg/kg/injection, schedule: Q01DX005 (ip), vehicle: saline 96 % of control | dose: 60.0 mg/kg/injection, schedule: Q01DX005 (ip), vehicle: saline 110 % of control

Nc1nc(/C=C(/O)c2ccccc2)c2ncn(C3OC(CO)C(O)C3O)c2n1 (stereo not drawn)
inactive: [1] 106 % of control | [2] 103 % of control | [3] 114 % of control

Cc1ccc(S(=O)(=O)NC(=O)/N=C2\NC(=O)CS2)cc1
inactive: [13] 100 % of control | [14] 103 % of control | [15] 91 % of control

O=C(NCCCl)Nc1[nH]c(=O)ncc1I
inactive: dose: 1.88 mg/kg/injection, schedule: Q01DX005 (ip), vehicle: saline with Tween-80 101 % of control | dose: 3.75 mg/kg/injection, schedule: Q01DX005 (ip), vehicle: saline with Tween-80 101 % of control | dose: 7.5 mg/kg/injection, schedule: Q01DX005 (ip), vehicle: saline with Tween-80 100 % of control | [4] 95 % of control

CCCCCCC1(/C=C\c2ccc(Cl)c(Cl)c2)OCCO1
inactive: [10] 93 % of control | [11] 108 % of control | [12] 100 % of control

CCCCOC1NC(=O)Oc2ccccc21 (stereo not drawn)
inactive: [4] 100 % of control and 103 % of control and 97 % of control | [5] 101 % of control and 108 % of control (2×) | [6] 100 % of control and 109 % of control

COc1ccc(C2NCc3c(sc4c3CCCC4)-n3cccc32)cc1 (stereo not drawn)
inactive: [13] 87 % of control | [14] 87 % of control | [15] 87 % of control

CN(O)C(=O)CN
inactive: [13] 102 % of control | [14] 102 % of control | [15] 98 % of control | dose: 400.0 mg/kg/injection, schedule: Q01DX005 (ip), vehicle: saline with Tween-80 100 % of control
